Measurements published in patent publication US9943529B2, “Methods for reducing cellular proliferation and treating certain diseases” (BRIGHAM YOUNG UNIVERSITY, priority 2013, dated 2018).

Tests used:
Settings in all cases: 10 μM, 48 hours
CCRF-CEM = assay: NCI screen antiproliferative activity, sulforhodamine B, Leukemia panel; assay type: cell-based, human
Experimental: (§1) The antiproliferative activity of compounds were determined in the National Cancer Institute (NCI) screen (Drug. Dev. Res. 1995, 34, 91-109; J. Natl. Cancer Inst. 1990, 82, 1107-1112; Drug Dev. Res. 1995, 34, 91-109). For certain compounds, cells of approximately 60 different human cancer cell lines were incubated for 48 hours with five 10-fold dilutions of the tested compounds starting from 100 μM and then treated with sulforhodamine B dye. For other compounds, cells of approximately 60 different human cancer cell lines were incubated for 48 hours with a concentration of 10 μM test compound. The ratios of recorded optical densities relative to that of the control were plotted as a function of the common logarithm of the tested compound concentrations or growth percent (for single concentration tests). The interpolation between the points located above and below the 50% percentage growth provided 50% growth inhibition (GI50) values. Total growth inhibition (TGI) and 50% lethal concentrations (LC50) were also calculated using reported methods. A “-” means not tested and/or not-determined.

HL-60(TB) = assay: as above; assay type: cell-based, human
Experimental: as §1

K-562 = assay: as above; assay type: cell-based, human
MOLT-4 = assay: as above; assay type: cell-based, human
RPMI-8226 = assay: as above; assay type: cell-based, human
SR = assay: as above; assay type: cell-based, human
COLO 205 = assay: NCI screen antiproliferative activity, sulforhodamine B, Colon Cancer panel; assay type: cell-based, human
KM12 = assay: as above; assay type: cell-based, human
SW-620 = assay: as above; assay type: cell-based, human
LOX IMVI = assay: NCI screen antiproliferative activity, sulforhodamine B, Melanoma panel; assay type: cell-based, human
MALME-3M = assay: as above; assay type: cell-based, human
SK-MEL-5 = assay: as above; assay type: cell-based, human
NCI/ADR-RES = assay: NCI screen antiproliferative activity, sulforhodamine B, Ovarian Cancer panel; assay type: cell-based, human
Experimental: as §1

A498 = assay: NCI screen antiproliferative activity, sulforhodamine B, Renal Cancer panel; assay type: cell-based, human
Experimental: as §1

HS 578T = assay: NCI screen antiproliferative activity, sulforhodamine B, Breast Cancer panel; assay type: cell-based, human
MDA-MB-468 = assay: as above; assay type: cell-based, human
Experimental: as §1

A549/ATCC = tested on: A549/ATCC
HOP-62 = tested on: HOP-62
HOP-92 = tested on: HOP-92
NCI-H226 = tested on: NCI-H226
NCI-H23 = tested on: NCI-H23
NCI-H322M = tested on: NCI-H322M
NCI-H460 = tested on: NCI-H460
NCI-H522 = tested on: NCI-H522
HCC-2998 = tested on: HCC-2998
HCT-116 = tested on: HCT-116
HCT-15 = tested on: HCT-15
HT29 = tested on: HT29
SF-268 = tested on: SF-268
SF-539 = tested on: SF-539
SNB-19 = tested on: SNB-19
SNB-75 = tested on: SNB-75
M14 = tested on: M14
SK-MEL-28 = tested on: SK-MEL-28
UACC-62 = tested on: UACC-62
IGROV1 = tested on: IGROV1
OVCAR-3 = tested on: OVCAR-3
OVCAR-4 = tested on: OVCAR-4
OVCAR-5 = tested on: OVCAR-5
OVCAR-8 = tested on: OVCAR-8
SK-OV-3 = tested on: SK-OV-3
786-0 = tested on: 786-0
ACHN = tested on: ACHN
CAKI-1 = tested on: CAKI-1
RXF 393 = tested on: RXF 393
SN12C = tested on: SN12C
TK-10 = tested on: TK-10
UO-31 = tested on: UO-31
PC-3 = tested on: PC-3
DU-145 = tested on: DU-145
MCF7 = tested on: MCF7
MDA-MB-231/ATCC = tested on: MDA-MB-231/ATCC
MDA-MB-435 = tested on: MDA-MB-435
BT-549 = tested on: BT-549
T-47D = tested on: T-47D

## CCCCCCCCCCCCCCCCNCCCC(C)C1CCC2C3C(OCCCN)CC4CC(OCCCN)CCC4(C)C3CC(OCCCN)C12C.Cl.Cl.Cl.Cl (stereo not shown) [CSA-92]
CCRF-CEM
  Growth Percent: −45.52%
HL-60(TB)
  Growth Percent: 4.50%
K-562
  Growth Percent: −34.68%
MOLT-4
  Growth Percent: −33.70%
RPMI-8226
  Growth Percent: −15.39%
SR
  Growth Percent: 2.63%
COLO 205
  Growth Percent: −40.80%
KM12
  Growth Percent: −24.28%
SW-620
  Growth Percent: −25.31%
LOX IMVI
  Growth Percent: −60.40%
MALME-3M
  Growth Percent: −60.74%
SK-MEL-5
  Growth Percent: 3.14%
NCI/ADR-RES
  Growth Percent: −60.60%
A498
  Growth Percent: −5.88%
HS 578T
  Growth Percent: −34.00%
MDA-MB-468
  Growth Percent: −55.21%
A549/ATCC
  Growth Percent: −57.98%
HOP-62
  Growth Percent: −49.53%
HOP-92
  Growth Percent: −33.16%
NCI-H226
  Growth Percent: −1.42%
NCI-H23
  Growth Percent: −39.72%
NCI-H322M
  Growth Percent: −76.83%
NCI-H460
  Growth Percent: −45.47%
NCI-H522
  Growth Percent: −43.60%
HCC-2998
  Growth Percent: −32.41%
HCT-116
  Growth Percent: −16.64%
HCT-15
  Growth Percent: 7.08%
HT29
  Growth Percent: −40.97%
SF-268
  Growth Percent: −38.18%
SF-539
  Growth Percent: −68.05%
SNB-19
  Growth Percent: −66.56%
SNB-75
  Growth Percent: −64.78%
M14
  Growth Percent: −28.70%
SK-MEL-28
  Growth Percent: −64.73%
UACC-62
  Growth Percent: −64.22%
IGROV1
  Growth Percent: −41.76%
OVCAR-3
  Growth Percent: −10.46%
OVCAR-4
  Growth Percent: −37.10%
OVCAR-5
  Growth Percent: −3.67%
OVCAR-8
  Growth Percent: −48.90%
SK-OV-3
  Growth Percent: −45.67%
786-0
  Growth Percent: −43.08%
ACHN
  Growth Percent: −26.45%
CAKI-1
  Growth Percent: −70.80%
RXF 393
  Growth Percent: −41.21%
SN12C
  Growth Percent: −82.86%
TK-10
  Growth Percent: −60.33%
UO-31
  Growth Percent: −52.51%
PC-3
  Growth Percent: −14.45%
DU-145
  Growth Percent: −82.24%
MCF7
  Growth Percent: −44.27%
MDA-MB-231/ATCC
  Growth Percent: −98.22%
MDA-MB-435
  Growth Percent: −28.31%
BT-549
  Growth Percent: −26.02%
T-47D
  Growth Percent: −20.87%

## CCCCCN(CCCCC)CCC[C@@H](C)[C@H]1CC[C@H]2[C@@H]3[C@H](OCCCN)C[C@@H]4C[C@H](OCCCN)CC[C@]4(C)[C@H]3C[C@H](OCCCN)[C@]12C [CSA-90]
CCRF-CEM
  Growth Percent: 15.29%
HL-60(TB)
  Growth Percent: −16.84%
K-562
  Growth Percent: −19.42%
MOLT-4
  Growth Percent: 41.11%
RPMI-8226
  Growth Percent: −17.73%
SR
  Growth Percent: 19.21%
COLO 205
  Growth Percent: 52.08%
KM12
  Growth Percent: 22.46%
SW-620
  Growth Percent: 45.90%
LOX IMVI
  Growth Percent: 3.00%
MALME-3M
  Growth Percent: 62.21%
SK-MEL-5
  Growth Percent: 25.14%
NCI/ADR-RES
  Growth Percent: 76.04%
A498
  Growth Percent: 92.77%
HS 578T
  Growth Percent: 66.91%
MDA-MB-468
  Growth Percent: 71.06%
A549/ATCC
  Growth Percent: 55.21%
HOP-62
  Growth Percent: 48.28%
HOP-92
  Growth Percent: 50.03%
NCI-H226
  Growth Percent: 75.25%
NCI-H23
  Growth Percent: 49.16%
NCI-H322M
  Growth Percent: 24.61%
NCI-H460
  Growth Percent: 45.20%
NCI-H522
  Growth Percent: 28.85%
HCC-2998
  Growth Percent: 59.63%
HCT-116
  Growth Percent: 22.71%
HCT-15
  Growth Percent: 72.31%
HT29
  Growth Percent: 24.49%
SF-268
  Growth Percent: 87.47%
SF-539
  Growth Percent: −21.94%
SNB-19
  Growth Percent: 61.03%
SNB-75
  Growth Percent: 70.61%
M14
  Growth Percent: 42.81%
SK-MEL-28
  Growth Percent: 27.91%
UACC-62
  Growth Percent: 13.55%
IGROV1
  Growth Percent: 29.55%
OVCAR-3
  Growth Percent: 107.13%
OVCAR-4
  Growth Percent: 85.16%
OVCAR-5
  Growth Percent: 66.15%
OVCAR-8
  Growth Percent: 55.32%
SK-OV-3
  Growth Percent: 93.22%
786-0
  Growth Percent: 61.11%
ACHN
  Growth Percent: 54.72%
CAKI-1
  Growth Percent: 75.81%
RXF 393
  Growth Percent: 87.11%
SN12C
  Growth Percent: 54.27%
UO-31
  Growth Percent: 65.22%
PC-3
  Growth Percent: 80.53%
DU-145
  Growth Percent: 76.50%
MCF7
  Growth Percent: 74.77%
MDA-MB-231/ATCC
  Growth Percent: 36.97%
MDA-MB-435
  Growth Percent: −13.61%
BT-549
  Growth Percent: 54.97%
T-47D
  Growth Percent: 68.11%
